In brackets after ≈: the same amount, converted by molar mass.
Key:
[1] = test system: Candida tropicalis; experiment: Antifungal activity against Candida tropicalis ATCC 1369 assessed as reduction in fungal growth incubated for 72 hrs by CLSI protocol based broth microdilution method; format: functional
[2] = test system: Aspergillus fumigatus; experiment: Antifungal activity against Aspergillus fumigatus KM8001 assessed as reduction in fungal growth incubated for 72 hrs by CLSI protocol based broth microdilution method; format: functional
[3] = test system: Pichia kudriavzevii; experiment: Antifungal activity against Candida krusei ATCC 6258 assessed as reduction in fungal growth incubated for 72 hrs by CLSI protocol based broth microdilution method; format: functional
[4] = test system: Nakaseomyces glabratus; experiment: Antifungal activity against Candida glabrata ATCC 0001 assessed as reduction in fungal growth incubated for 72 hrs by CLSI protocol based broth microdilution method; format: functional
[5] = test system: Candida albicans; experiment: Antifungal activity against Candida albicans SC5314 assessed as reduction in fungal growth incubated for 72 hrs by CLSI protocol based broth microdilution method; format: functional
[6] = test system: Candida albicans; experiment: Induction of apoptosis against Candida albicans ATCC SC5314 assessed as mild apoptotic cells measured after 48 hrs by Annexin V-FITC/propidium iodide staining based flow cytometry (Rvb =0.29 %); format: functional
[7] = test system: Candida albicans; experiment: Antifungal activity against Candida albicans strain 901 assessed as reduction in fungal growth incubated for 72 hrs by CLSI protocol based broth microdilution method; format: functional
[8] = test system: Candida albicans; experiment: Inhibition of SE/CYP51 in Candida albicans ATCC SC5314 assessed as eburicol level incubated for 48 hrs by LC/MS analysis; set-up: scale not given: the % may be the effect or the level left
[9] = test system: Candida albicans; experiment: Inhibition of SE/CYP51 in Candida albicans ATCC SC5314 assessed as lanosterol level incubated for 48 hrs by LC/MS analysis; set-up: scale not given: the % may be the effect or the level left
[10] = target: Lanosterol 14-alpha demethylase (Candida albicans (strain SC5314 / ATCC MYA-2876) (Yeast), UniProt P10613); experiment: Inhibition of CYP51 in Candida albicans ATCC SC5314 measured after 30 mins by HPLC analysis
[11] = test system: Candida albicans; experiment: Antifungal activity against Candida albicans strain 904 assessed as reduction in fungal growth incubated for 72 hrs by CLSI protocol based broth microdilution method; format: functional
[12] = test system: Candida albicans; experiment: Antifungal activity against Candida albicans strain CaR assessed as reduction in fungal growth incubated for 72 hrs by CLSI protocol based broth microdilution method; format: functional
[13] = test system: Candida albicans; experiment: Induction of apoptosis against Candida albicans ATCC SC5314 assessed as viable cells measured after 48 hrs by Annexin V-FITC/propidium iodide staining based flow cytometry (reference value: 80.78 %); format: functional
[14] = test system: Candida albicans; experiment: Antifungal activity against Candida albicans strain 17 assessed as reduction in fungal growth incubated for 72 hrs by CLSI protocol based broth microdilution method; format: functional
[15] = test system: Candida albicans; experiment: Inhibition of SE/CYP51 in Candida albicans ATCC SC5314 assessed as squalene level incubated for 48 hrs by LC/MS analysis; set-up: scale not given: the % may be the effect or the level left
[16] = test system: Candida albicans; experiment: Induction of apoptosis against Candida albicans ATCC SC5314 assessed as late apoptotic cells measured after 48 hrs by Annexin V-FITC/propidium iodide staining based flow cytometry (reference value: 0.71 %); format: functional
[17] = test system: Candida albicans; experiment: Antifungal activity against Candida albicans strain 632 assessed as reduction in fungal growth incubated for 72 hrs by CLSI protocol based broth microdilution method; format: functional
[18] = test system: Candida albicans; experiment: Inhibition of SE/CYP51 in Candida albicans ATCC SC5314 assessed as unknown sterol level incubated for 48 hrs by LC/MS analysis; set-up: scale not given: the % may be the effect or the level left
[19] = test system: Candida albicans; experiment: Inhibition of SE/CYP51 in Candida albicans ATCC SC5314 assessed as ergosterol level incubated for 48 hrs by LC/MS analysis; set-up: scale not given: the % may be the effect or the level left
[20] = test system: Candida albicans; experiment: Induction of apoptosis against Candida albicans ATCC SC5314 assessed as necrotic cells measured after 48 hrs by Annexin V-FITC/propidium iodide staining based flow cytometry (reference value: 18.22 %); format: functional

Lanosterol 14-alpha demethylase, sequence (P10613 whole entry): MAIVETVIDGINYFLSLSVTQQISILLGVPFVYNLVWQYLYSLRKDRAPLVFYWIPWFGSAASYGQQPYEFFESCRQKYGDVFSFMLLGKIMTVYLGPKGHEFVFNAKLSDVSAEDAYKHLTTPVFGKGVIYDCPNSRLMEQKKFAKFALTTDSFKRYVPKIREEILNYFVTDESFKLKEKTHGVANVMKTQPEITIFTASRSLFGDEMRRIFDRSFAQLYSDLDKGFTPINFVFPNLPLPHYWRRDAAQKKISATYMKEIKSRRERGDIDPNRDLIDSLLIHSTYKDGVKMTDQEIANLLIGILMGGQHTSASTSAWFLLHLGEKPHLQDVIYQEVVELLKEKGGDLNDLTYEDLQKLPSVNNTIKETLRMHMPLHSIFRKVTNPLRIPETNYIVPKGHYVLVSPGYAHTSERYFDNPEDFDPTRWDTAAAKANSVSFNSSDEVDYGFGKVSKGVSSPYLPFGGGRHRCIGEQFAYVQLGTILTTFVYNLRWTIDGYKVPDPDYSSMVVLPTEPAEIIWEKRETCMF

SMILES | MIC50 [1] [µg/mL] | MIC50 [2] [µg/mL] | MIC50 [3] [µg/mL] | MIC50 [4] [µg/mL] | MIC50 [5] [µg/mL] | Activity [6] [%] | MIC50 [7] [µg/mL] | Activity [8] [%] | Activity [9] [%] | IC50 [10] [nM] | MIC50 [11] [µg/mL] | MIC50 [12] [µg/mL] | Activity [13] [%] | MIC50 [14] [µg/mL] | Activity [15] [%] | Activity [16] [%] | MIC50 [17] [µg/mL] | Activity [18] [%] | Activity [19] [%] | Activity [20] [%]
O=C(NC(Cn1cncn1)C(=O)c1ccccc1)c1cccc2ccccc12 (stereo not given) | 0.25 (≈ 0.675 µM) | > 8 | 0.5 (≈ 1.35 µM) | 0.5 (≈ 1.35 µM) | 0.5 (≈ 1.35 µM) | – | – | – | – | – | – | – | – | – | – | – | – | – | – | –
O=C(/C=C/c1cccc2ccccc12)NC(C(=O)Nc1cccnc1)c1ccccc1 (stereo not given) | 0.5 (≈ 1.23 µM) | 4 (≈ 9.82 µM) | 0.5 (≈ 1.23 µM) | 1 (≈ 2.45 µM) | 0.5 (≈ 1.23 µM) | – | – | – | – | – | – | – | – | – | – | – | – | – | – | –
O=C(NC(Cn1ccnc1)C(=O)c1ccccc1)c1ccc2ccccc2c1 (stereo not given) | 0.5 (≈ 1.35 µM) | > 8 | 0.5 (≈ 1.35 µM) | 0.25 (≈ 0.677 µM) | 0.125 (≈ 0.338 µM) | – | – | – | – | – | – | – | – | – | – | – | – | – | – | –
OC(Cn1cncn1)(Cn1cncn1)c1ccc(F)cc1F [FLUCONAZOLE] | 0.5 (≈ 1.63 µM) | > 8 | 0.5 (≈ 1.63 µM) | 0.5 (≈ 1.63 µM) | 0.25 (≈ 0.816 µM) | 0.22 | > 8 | 41.5 | 23.6 | 134 | > 8 | > 8 | 74.25 | > 8 | 1.8 | 0.92 | > 8 | 6.6 | 26.5 | 24.61

Reference: ChEMBL document CHEMBL5038624, “Construction and activity evaluation of novel dual-target (SE/CYP51) anti-fungal agents containing amide naphthyl structure” (Eur J Med Chem, 2022)
